Several values for one entry are separate records, joined by “and”; a condition that tells them apart may be missing. Identical values can stand only once.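 All cell lines were grown in 96-well plates and treated with compound for 48 hours. Abbreviation: GI50, concentration required for 50% inhibition of growth. TGI: concentration producing complete growth inhibition.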
Tests used:
Assay in all cases: growth of human tumour cells (NCI), 48 h
SK-MEL-5 melanoma = test system: SK-MEL-5 melanoma
U251 CNS = test system: U251 CNS
NCI-H23 lung = test system: NCI-H23 lung
HCC-2998 colon = test system: HCC-2998 colon
KM12 colon = test system: KM12 colon
HT29 colon = test system: HT29 colon
HOP-92 NSCLC = test system: HOP-92 NSCLC
OVCAR-4 ovarian = test system: OVCAR-4 ovarian
NCI-H460 lung = test system: NCI-H460 lung
UACC-257 melanoma = test system: UACC-257 melanoma

| Compound | TGI (SK-MEL-5 melanoma) | TGI (U251 CNS) | TGI (NCI-H23 lung) | TGI (HCC-2998 colon) | TGI (KM12 colon) | TGI (HT29 colon) | TGI (HOP-92 NSCLC) | TGI (OVCAR-4 ovarian) | TGI (NCI-H460 lung) | TGI (UACC-257 melanoma) | GI50 (UACC-257 melanoma) | GI50 (SK-MEL-5 melanoma) | GI50 (U251 CNS) | GI50 (NCI-H23 lung) | GI50 (HCC-2998 colon) | GI50 (KM12 colon) | GI50 (HT29 colon) | GI50 (HOP-92 NSCLC) | GI50 (OVCAR-4 ovarian) | GI50 (NCI-H460 lung) |
| --- | --- | --- | --- | --- | --- | --- | --- | --- | --- | --- | --- | --- | --- | --- | --- | --- | --- | --- | --- | --- |
| CC1=CC=NN2C(=O)[C@H](C)C2C1 (stereo partly drawn) | > 100 µM | > 100 µM | > 100 µM | > 100 µM | > 100 µM | > 100 µM | > 100 µM | > 100 µM | > 100 µM | > 100 µM | – | – | – | – | – | – | – | – | – | – |
| COc1ccc(OCC(=O)O)c2c1CCC(C(C)C)C2=O (stereo not drawn) | > 100 µM | > 100 µM | > 100 µM | > 100 µM | > 100 µM | > 100 µM | > 100 µM | > 100 µM | > 100 µM | > 100 µM | – | – | – | – | – | – | – | – | – | – |
| CCCCCCCCCCCCCS(=O)(=O)O | > 100 µM | > 100 µM | > 100 µM | > 100 µM | > 100 µM | > 100 µM | > 100 µM | > 100 µM | > 100 µM | > 100 µM | – | – | – | – | – | – | – | – | – | – |
| CCN1C(=O)C/C(=C\C(C)=O)Nc2ccccc21 | > 31.6 µM | > 100 µM | > 100 µM | > 100 µM | > 100 µM | > 100 µM | > 100 µM | > 100 µM | > 100 µM | > 100 µM | > 100 µM | – | – | – | – | – | – | – | – | – |
| CCC1=C(C)/C(=C/c2[nH]c(C)c(C(=O)CCCCC(=O)OC)c2C)N=C1c1ccc[nH]1 | 20.8 µM | 33.1 µM | 55.5 µM | 54.1 µM | > 77.4 µM | 38.4 µM | 15.4 µM | 17.3 µM | > 100 µM | 44.2 µM | 16.1 µM | 7.8 µM | 12.6 µM | 17.3 µM | 22.3 µM | 16.6 µM | 5.11 µM | 3.95 µM | 3.47 µM | 37.6 µM |
| CN/N=C(/Cc1occc(=O)c1O)C(=O)Nc1ccc(C)c(C)c1 | > 100 µM | > 100 µM | > 100 µM | > 100 µM | > 100 µM | > 100 µM | > 100 µM | > 100 µM | > 100 µM | > 100 µM | – | – | – | – | – | – | – | – | – | – |
| CC(C)(C)NNC(=O)/C(=C/c1ccc(Oc2ccc(Cl)c(Cl)c2)cc1)NC(=O)c1ccccc1 | > 100 µM | > 100 µM | > 100 µM | > 100 µM | > 100 µM | > 100 µM | > 100 µM | > 100 µM | > 100 µM | > 100 µM | – | – | – | – | – | – | – | – | – | – |
| C=C1C(=O)O[C@H]2[C@H]1CC/C(COC(=O)C(=O)c1c[nH]c3ccccc13)=C\CC[C@@]1(C)O[C@@H]21 | 4.13 µM | 3.64 µM | 16 µM | 4.02 µM | 13.4 µM | 2.68 µM | 4.49 µM | 25.9 µM | 20.7 µM | 3.53 µM | 1.64 µM | 2.06 µM | 1.86 µM | 3.92 µM | 1.95 µM | 3.28 µM | 1.21 µM | 2.04 µM | 5.18 µM | 4.03 µM |
| CC(C)(C)[Si](C)(C)OCC1CCC(n2cnc3c(NC(=O)c4ccccc4)ncnc32)O1 (stereo not drawn) | 23.7 µM | 32.9 µM | 37.4 µM | 36.2 µM | 31.3 µM | 33.6 µM | 31.6 µM | 39.5 µM | 32 µM | 33.4 µM | – | – | – | – | – | – | – | – | – | – |
| COc1cc(/C=C(/C)[N+](=O)[O-])ccc1O | 3.92 µM and 3.57 µM | 3.79 µM and 3.7 µM | 5.23 µM | 3.28 µM and 3.08 µM | 7.52 µM and 3.75 µM | 6.09 µM | 4.4 µM and 4.28 µM | 7.6 µM and 3.18 µM | 7.15 µM and 6.05 µM | 3.39 µM and 3.25 µM | 1.66 µM and 1.61 µM | 1.91 µM and 1.9 µM | 1.77 µM and 1.87 µM | 2.05 µM and 2.09 µM | 1.77 µM and 1.68 µM | 2.97 µM and 1.93 µM | 2.63 µM | 1.62 µM and 1.84 µM | 2.62 µM and 1.69 µM | 2.52 µM and 2.22 µM |
| O=C(Cc1nc2ccccc2s1)C(=O)Nc1ccc(Cl)cc1 | > 100 µM | > 100 µM | > 100 µM | > 100 µM | > 100 µM | > 100 µM | > 100 µM | > 100 µM | > 100 µM | > 100 µM | – | – | – | – | – | – | – | – | – | – |
| CNc1ccccc1C(=O)N/N=C/C=C/c1ccccc1 | 31.3 µM | 34.8 µM | > 100 µM | 36.3 µM | 50.5 µM | 12.9 µM | 57.9 µM | > 48.5 µM | > 41.9 µM | 72.1 µM | 11.4 µM | 0.849 µM | 1.19 µM | 7.93 µM | 8.82 µM | 0.547 µM | 0.373 µM | 4.13 µM | 5.61 µM | 0.503 µM |
| CSC(=S)c1ccc(C(=S)SC)cc1 | > 100 µM | > 100 µM | > 100 µM | > 100 µM | > 100 µM | > 100 µM | > 100 µM | > 100 µM | > 100 µM | > 100 µM | – | – | – | – | – | – | – | – | – | – |
| COc1ccc(C(=O)/C=C/c2ccc(O)c(O)c2F)c(OC)c1 | 13.6 µM and 19.6 µM | 23.1 µM and 17.9 µM | 12.6 µM and 32.1 µM | 12.2 µM and 12.3 µM | 27.8 µM and 23.9 µM | 23.8 µM and 17.7 µM | 75 µM and > 100 µM | 75 µM and > 100 µM | 13 µM and 15.9 µM | 18.4 µM and 22.3 µM | 10.5 µM | 2.7 µM | 4.12 µM | 5.27 µM | 3.41 µM | – | 4.03 µM | 36 µM | 9.3 µM | – |
| Cc1ccc(C)c(NC(=O)C(=O)C2C(=O)C3=C(CC2(C)C)Nc2ccccc2S3)c1 (stereo not drawn) | > 100 µM | > 100 µM | > 100 µM | > 100 µM | > 100 µM | > 100 µM | > 100 µM | > 100 µM | > 100 µM | > 100 µM | – | – | – | – | – | – | – | – | – | – |
| COC(=O)/C=C/c1cc(O)c2c(c1)C(C(=O)OC)C(c1ccc(O)c(O)c1)O2 (stereo not drawn) | 5.45 µM and 4.29 µM | 46.2 µM and 23.2 µM | 54.7 µM and > 100 µM | 72.7 µM and > 46.9 µM | 20.7 µM and 16.6 µM | > 57.6 µM and 24.1 µM | > 55 µM and 9.3 µM | 62.2 µM and > 75.9 µM | 12.3 µM and 12.1 µM | 63.3 µM and 48.7 µM | 11.5 µM and 4.5 µM | < 0.0455 µM and 0.0566 µM | 0.116 µM | 0.134 µM and 0.075 µM | 1.53 µM and 0.558 µM | 0.395 µM | 3.89 µM and 1.75 µM | – | 0.34 µM and 0.353 µM | 1.46 µM and 0.363 µM |
| CC/C=C\C[C@H](O)C/C=C1/C(=O)C=C[C@@H]1C/C=C\CCCC(=O)NC(C)C | 3.35 µM | 7.08 µM | 6.09 µM | 3.42 µM | 4.89 µM | 4.11 µM | 6.08 µM | 18.4 µM | 5.79 µM | 6.22 µM | 2.17 µM | 1.8 µM | 2.61 µM | 2.33 µM | 1.87 µM | 1.91 µM | 2.23 µM | 2.75 µM | 4.27 µM | 2.43 µM |
